One test has as its system tibialis muscle. Nature of the test: Neuromuscular block in anesthetized cats (electrically stimulated peroneal nerve, tibialis muscle contractions). Type of test: in vivo. To be noted: for Activity period: i.v., time between first appearance of the effect and restoration of normal muscle contractions; for ED50: i.v. dose reducing the contractions to half of their original values, 4 doses. On the procedure: The potency and the activity period of the compounds according to the invention were tested on anesthesized cats and alert dogs. On anesthesized cats the peroneal nerve was electrically stimulated and the corresponding contractions of the tibialis muscle was registrated. The i.v. doses of the various test compounds which reduced the contractions to half of their original values were determined (ED50 -values). In the attached Table I the ED50 -values and the corresponding activity periods are shown, the term "activity period" is intended to mean the time interval between the first appearance of the effect of the test compounds and the restoration of the normal muscle contractions. For each test compound 4 doses were used and for each dose 6 animals were examined. As a reference compound suxamethonium was used, which is a known compound widely used as a neuromuscular blocking agent having a short activity period.

For a further test, the system named is muscle relaxation. Nature of the test: Total muscle relaxation in alert dogs. Type of test: in vivo. The note with it: for Activity period: time between administration and disappearance of the activity; for Time until the max. effect: time between administration and total muscle relaxation. On the procedure:
To alert dogs (6 animals for each test compound) four doses causing a total muscle relaxation were administered and the time between the administration and the total muscle relaxation as well as the time between the administration and the disappearance of the activity was measured.

[1] abbreviates: Dose 100 (unit not printed), listed as 3 β-Pyrrolidino-17a-methyl-17a-aza-D-homo-5 α-androstane-di-methobromide.
Setting [2] is: Dose 100 (unit not printed), listed as 3 β-Pyrrolidino-17a-methyl-17a-aza-D-homo-5α -androstane-di-methoiodide.

Where two headings read alike, the source gives them in different places.

What is called ED50 is the dose that gives a 50% effect, or the effect in half of the subjects.

The molecule `C[C@]12CC[C@@H]([N+]3(C)CCCC3)C[C@@H]1CC[C@@H]1[C@@H]2CC[C@@]2(C)[C@H]1CCC[N+]2(C)C` [3 α-Pyrrolidino-17a-methyl-17a-aza-D-homo-5α-androstane-di-m] [3α-Pyrrolidino-17a-methyl-17a-aza-D-homo-5α-androstane dimethobromide] had an Activity period with tibialis muscle of 11.2 min. For the same molecule, in the test with muscle relaxation (Dose 100 (unit not given)), the Activity period is listed as 8.6 min and the “Time until the max. effect” value turned out to be 18 s.
In the case of `C[C@]12CC[C@@H]([N+]3(C)CCCC3)C[C@@H]1CC[C@@H]1[C@@H]2CC[C@@]2(C)[C@H]1CCC[N+]2(C)C` [3 αPyrrolidino-17a-methyl-17a-aza-D-homo-5α-androstane-di-me] [3α-Pyrrolidino-17a-methyl-17a-aza-D-homo-5α-androstane dimethoiodide], in the test on tibialis muscle, the ED50 came to 0.12 mg/kg and the Activity period is recorded as 12.4 min. In the test with muscle relaxation (Dose 100 (unit not given)), the Activity period was found to be 8.5 min and the “Time until the max. effect” value was 19 s.
`C[C@]12CC[C@H]([N+]3(C)CCCC3)C[C@@H]1CC[C@@H]1[C@@H]2CC[C@@]2(C)[C@H]1CCC[N+]2(C)C` [3 β-Pyrrolidino-17a-methyl-17a-aza-D-homo-5α-androstane-di-m] [3β-Pyrrolidino-17a-methyl-17a-aza-D-homo-5α-androstane dimethobromide]: the Activity period in the test on tibialis muscle turned out to be 13.0 min. Moreover, in the test on muscle relaxation (setting [1]), the Activity period turned out to be 9.5 min and the “Time until the max. effect” value is 21 s.
In the test on tibialis muscle, `C[C@]12CC[C@H]([N+]3(C)CCCC3)C[C@@H]1CC[C@@H]1[C@@H]2CC[C@@]2(C)[C@H]1CCC[N+]2(C)C` [3 β-Pyrrolidino-17a-methyl-17a-aza-D-homo-5α-androstane-di-m] [3β-Pyrrolidino-17a-methyl-17a-aza-D-homo-5α-androstane dimethoiodide] registered an ED50 of 0.105 mg/kg and an Activity period of 12.6 min. Further, in the test with muscle relaxation (setting [2]), the Activity period was found to be 8.8 min and the “Time until the max. effect” value stood at 17 s.
In turn, `C[C@]12CC[C@@H]([N+]3(C)CCCC3)C[C@@H]1CC[C@@H]1[C@@H]2CC[C@@]2(C)[C@H]1CCC[N+]2(C)C` [3α-Pyrrolidino-17a-methyl-17a-aza-D-homo-5α-androstane dimethobromide] yielded an ED50 in the test with tibialis muscle (Felis catus, iv) of 0.1 mg/kg.
Same read-out and setting: next, `C[C@]12CC[C@H]([N+]3(C)CCCC3)C[C@@H]1CC[C@@H]1[C@@H]2CC[C@@]2(C)[C@H]1CCC[N+]2(C)C` [3β-Pyrrolidino-17a-methyl-17a-aza-D-homo-5α-androstane dimethobromide]: 0.125 mg/kg.
`C[N+](C)(C)CCOC(=O)CCC(=O)OCC[N+](C)(C)C` [Suxamethonium, reference compound]: the ED50 with tibialis muscle (Felis catus, iv, read-out: ED50) turned out to be 0.06 mg/kg. In the test on tibialis muscle, this molecule yielded an Activity period of 11.0 min. In addition, in the test with muscle relaxation (Dose 100 (unit not given)), the Activity period is 10.3 min and the “Time until the max. effect” value was determined as 16 s.

Source of the values: patent US4200636A, “3-Amino-17a-aza-D-homoandrostane compounds, and pharmaceutical compositions containing them” (priority 1977, dated 1980).
